Like-named read-outs stand apart in the source and are kept apart here.
Legend:
[1] = Pharmacokinetics of ceftaroline after IV infusion of ceftaroline fosamil in adults with normal renal function; set-up: species or system human; conditions: in vivo
Text: The standard deviation is shown in brackets.

[2] = Pharmacokinetics in healthy elderly subjects; format: in vivo, human; conditions: healthy elderly (≧65 years); 600 mg IV dose
CYP1A1 = target: T1, CYP1A1 (Homo sapiens, UniProt P04798); test: CYP inhibition in human liver microsomes; format: in vitro ADME
T1 construct: In vitro studies in human liver microsomes; from tissue; host or cells: human liver microsomes

CYP1A2 [3] = target: CYP1A2 (Homo sapiens, UniProt P05177); format: in vitro ADME; conditions: human liver microsomes
CYP2C8 [4] = target: T2, CYP2C8 (Homo sapiens, UniProt P10632); test: CYP inhibition in human liver microsomes; format: in vitro ADME
T2 construct: In vitro studies in human liver microsomes; from tissue; host or cells: human liver microsomes

CYP2D6 = target: T3, CYP2D6 (Homo sapiens, UniProt P10635); test: CYP inhibition in human liver microsomes; format: in vitro ADME
T3 construct: In vitro studies in human liver microsomes; from tissue; host or cells: human liver microsomes

CYP2E1 = target: T4, CYP2E1 (Homo sapiens, UniProt P05181); test: CYP inhibition in human liver microsomes; format: in vitro ADME
T4 construct: In vitro studies in human liver microsomes; from tissue; host or cells: human liver microsomes

CYP2B6 = test: CYP induction in human hepatocytes; format: in vitro ADME
CYP3A4/5 = test: CYP induction in human hepatocytes; format: in vitro ADME
[5] = tested on: Community-Acquired Bacterial Pneumonia (CABP); test: Two Phase 3 studies in CABP, integrated; format: in vivo, human; conditions: for Clinical Cure Rate at TOC / Treatment Difference in clinical cure rate at TOC: integrated CABP studies; for Clinical Cure Rate at TOC: after 5 to 7 days of therapy; for Treatment Difference in clinical cure rate at TOC / Weighted treatment difference (95% CI): versus ceftriaxone; for Weighted treatment difference (95% CI): combined CABP studies
Procedure: (§1) In both treatment groups of CABP Study 1, two doses of oral clarithromycin (500 mg q12h), were administered as adjunctive therapy starting on Study Day 1. No adjunctive macrolide therapy was used in CABP Study 2. Patients with new or progressive pulmonary infiltrate(s) on chest radiography and clinical signs and symptoms consistent with CABP with the need for hospitalization and IV therapy were enrolled in the studies. Treatment duration was 5 to 7 days. A switch to oral therapy was not allowed. The Modified Intent-to-Treat Efficacy (MITTE) population included all patients who received any amount of study drug according to their randomized treatment group and were in PORT (Pneumonia Outcomes Research Team) Risk Class III or IV.
The primary efficacy endpoint was the clinical response at the Test of Cure (TOC) visit in the co-primary CE and MITTE populations (Table 4). In a subgroup analysis (CE population), the comparative clinical cure rates between the ceftaroline group and the ceftriaxone group were not affected by age, gender, race, ethnicity, or weight.

[6] = tested on: Community-Acquired Bacterial Pneumonia (CABP); test: Phase 3 CABP Study 2 (Example 4, no adjunctive macrolide); format: in vivo, human; conditions: for Clinical Cure Rate at TOC / Treatment Difference in clinical cure rate at TOC: CABP Study 2; for Difference, clinical cure rate at EOT / Difference, favorable microbiological outcome at TOC: ceftaroline minus ceftriaxone, Example 4; for Treatment Difference in clinical cure rate at TOC: versus ceftriaxone
Procedure: as §1
The primary efficacy endpoint was the clinical response at the Test of Cure (TOC) visit in the co-primary CE and MITTE populations (Table 4).
The secondary objectives of the study were to evaluate the following: clinical response at end-of-therapy (EOT); the microbiological favorable outcome rate at TOC; the overall (clinical and radiographic) success rate at TOC; the clinical and microbiological response by pathogen at TOC; clinical relapse at late follow-up (LFU); microbiological reinfection/recurrence at LFU; and safety.
The following criteria were used for evaluation: The primary efficacy outcome measures were the per-subject clinical cure rate at test-of-cure (TOC) in the CE and MITTE Populations. Subjects were considered clinically cured at TOC if they had total resolution of all signs and symptoms of the baseline infection, or improvement of the infection such that no further antimicrobial therapy was necessary.
Non-inferiority was concluded if the lower limit of the 95% CI was higher than −10%.

S. aureus [7] = test: Example 4 CAP study, outcome by baseline pathogen; format: in vivo, Staphylococcus aureus
Text: (§2) Per-pathogen clinical cure rate and favorable microbiological outcome rate at TOC in the mMITTE and ME Populations;

H. influenzae = test: Example 4 CAP study, outcome by baseline pathogen; format: in vivo, Haemophilus influenzae
Text: as §2

H. parainfluenzae = test: Example 4 CAP study, outcome by baseline pathogen; format: in vivo
Text: as §2

K. pneumoniae = test: Example 4 CAP study, outcome by baseline pathogen; format: in vivo, Klebsiella pneumoniae
Text: as §2

MDRSP = test: Example 5 CAP study, outcome by baseline pathogen; format: in vivo, Streptococcus pneumoniae
Text: as §2

S. pneumoniae = test: Example 5 CAP study, outcome by baseline pathogen; format: in vivo, Streptococcus pneumoniae
Text: as §2

S. aureus [8] = test: Example 5 CAP study, outcome by baseline pathogen; format: in vivo, Staphylococcus aureus
Text: as §2

E. coli = test: Example 5 CAP study, outcome by baseline pathogen; format: in vivo, Escherichia coli
Text: as §2

CYP1A2 [9] = conditions: human hepatocytes
CYP2C8 [10] = conditions: human hepatocytes
CYP2C19 = conditions: human hepatocytes
[11] = Example 4
Procedure: The 600-mg dose of ceftaroline fosamil infused over 60 minutes was split into two infusions in order to maintain the blind. For subjects with moderate renal impairment (30 ml/min<CrCl≦50 ml/min), as estimated by the Cockroft-Gault formula, unblinded pharmacy staff or unblinded study staff could adjust the dose of ceftaroline fosamil to two consecutive 200 mg infusions and readjust dose to two 300 mg infusions when renal function improved (CrCl>50 mL/min). The duration of treatment was between 5 to 7 days.
All subjects who received any amount of study drug were included in the safety analysis. Safety measures included monitoring for adverse events (AE) up to TOC and serious adverse events (SAE) through LFU; recording vital signs, physical examination, electrocardiogram (ECG), and clinical laboratory findings (clinical chemistry, hematology, and urinalysis), at prespecified times throughout the study.

T2 sequence (P10632 whole entry): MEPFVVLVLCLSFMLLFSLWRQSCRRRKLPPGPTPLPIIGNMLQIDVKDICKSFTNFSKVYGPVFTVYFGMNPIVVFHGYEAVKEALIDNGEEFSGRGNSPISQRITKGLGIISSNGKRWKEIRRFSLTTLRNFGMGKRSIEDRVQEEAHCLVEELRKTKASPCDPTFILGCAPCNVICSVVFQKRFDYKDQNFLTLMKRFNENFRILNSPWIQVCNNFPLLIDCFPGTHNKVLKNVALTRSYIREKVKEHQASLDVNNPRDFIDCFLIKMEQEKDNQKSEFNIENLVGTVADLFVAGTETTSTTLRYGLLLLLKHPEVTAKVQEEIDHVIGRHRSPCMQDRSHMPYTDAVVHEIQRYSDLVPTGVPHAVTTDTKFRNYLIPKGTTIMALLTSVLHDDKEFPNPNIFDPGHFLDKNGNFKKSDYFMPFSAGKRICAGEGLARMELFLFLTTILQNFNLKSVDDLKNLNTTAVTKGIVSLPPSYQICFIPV
T4 sequence (P05181 whole entry): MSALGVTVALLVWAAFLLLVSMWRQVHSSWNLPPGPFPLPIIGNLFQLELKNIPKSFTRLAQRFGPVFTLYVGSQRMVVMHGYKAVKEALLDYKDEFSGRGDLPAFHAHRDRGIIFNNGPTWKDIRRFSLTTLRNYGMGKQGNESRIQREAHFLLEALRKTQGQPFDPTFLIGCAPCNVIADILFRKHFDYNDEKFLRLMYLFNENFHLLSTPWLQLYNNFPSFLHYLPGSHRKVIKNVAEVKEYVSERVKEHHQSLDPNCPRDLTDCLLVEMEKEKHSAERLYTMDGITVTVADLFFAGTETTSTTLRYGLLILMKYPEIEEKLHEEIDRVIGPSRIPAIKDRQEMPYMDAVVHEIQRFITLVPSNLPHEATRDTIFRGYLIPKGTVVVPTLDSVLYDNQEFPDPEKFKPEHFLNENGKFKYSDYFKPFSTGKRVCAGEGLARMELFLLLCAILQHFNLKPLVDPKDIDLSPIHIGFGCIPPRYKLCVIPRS
T3 sequence (P10635 whole entry): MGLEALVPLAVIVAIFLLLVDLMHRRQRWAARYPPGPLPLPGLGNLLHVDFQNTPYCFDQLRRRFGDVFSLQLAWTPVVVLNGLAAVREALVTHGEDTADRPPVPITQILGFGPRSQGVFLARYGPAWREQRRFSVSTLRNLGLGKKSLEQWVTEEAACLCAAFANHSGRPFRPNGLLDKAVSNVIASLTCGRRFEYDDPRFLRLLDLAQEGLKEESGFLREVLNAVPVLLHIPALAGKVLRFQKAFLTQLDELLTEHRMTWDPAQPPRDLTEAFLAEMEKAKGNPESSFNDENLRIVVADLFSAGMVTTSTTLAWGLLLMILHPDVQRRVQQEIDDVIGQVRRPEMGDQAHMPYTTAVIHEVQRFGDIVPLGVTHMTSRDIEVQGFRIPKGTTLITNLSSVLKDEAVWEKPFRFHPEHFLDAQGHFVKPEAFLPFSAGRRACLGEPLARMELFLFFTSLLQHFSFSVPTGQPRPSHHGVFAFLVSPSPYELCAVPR
Sequence of CYP1A2 (Homo sapiens, UniProt P05177) (P05177 whole entry): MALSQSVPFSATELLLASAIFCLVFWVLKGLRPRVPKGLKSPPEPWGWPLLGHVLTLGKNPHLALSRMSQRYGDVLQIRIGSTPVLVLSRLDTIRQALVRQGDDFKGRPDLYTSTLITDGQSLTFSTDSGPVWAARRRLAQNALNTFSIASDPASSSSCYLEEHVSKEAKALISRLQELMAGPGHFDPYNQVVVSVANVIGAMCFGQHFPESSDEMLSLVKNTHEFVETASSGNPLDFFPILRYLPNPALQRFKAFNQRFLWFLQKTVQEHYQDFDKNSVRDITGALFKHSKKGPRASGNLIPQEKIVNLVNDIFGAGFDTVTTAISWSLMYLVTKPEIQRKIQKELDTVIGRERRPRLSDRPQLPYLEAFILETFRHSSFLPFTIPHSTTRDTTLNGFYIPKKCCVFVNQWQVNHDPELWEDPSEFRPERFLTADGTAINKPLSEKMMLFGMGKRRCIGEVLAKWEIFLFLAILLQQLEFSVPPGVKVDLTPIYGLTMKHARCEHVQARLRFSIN
T1 sequence (P04798 whole entry): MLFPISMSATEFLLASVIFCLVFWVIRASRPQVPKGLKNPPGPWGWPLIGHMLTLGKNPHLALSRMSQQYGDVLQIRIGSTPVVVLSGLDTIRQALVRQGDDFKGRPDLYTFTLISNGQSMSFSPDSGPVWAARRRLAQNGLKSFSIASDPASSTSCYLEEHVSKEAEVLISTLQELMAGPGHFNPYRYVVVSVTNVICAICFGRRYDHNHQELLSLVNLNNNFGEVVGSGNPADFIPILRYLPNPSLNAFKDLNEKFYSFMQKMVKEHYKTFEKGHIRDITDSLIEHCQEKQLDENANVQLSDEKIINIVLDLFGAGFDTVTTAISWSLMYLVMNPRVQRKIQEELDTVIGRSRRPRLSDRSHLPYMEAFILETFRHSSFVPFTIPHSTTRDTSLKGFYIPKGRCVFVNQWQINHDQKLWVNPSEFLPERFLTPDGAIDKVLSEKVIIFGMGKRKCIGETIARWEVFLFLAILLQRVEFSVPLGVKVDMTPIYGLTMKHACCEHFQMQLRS

CCO/N=C(\C(=O)N[C@@H]1C(=O)N2C(C(=O)[O-])=C(Sc3nc(-c4cc[n+](C)cc4)cs3)CS[C@H]12)c1nsc(N)n1 [Ceftaroline]
CL/Fm ([1]; human): 9.58 (1.85) L/h
mean plasma terminal elimination half-life ([1]; human): approximately 2.5 hours
Cmax and AUC versus dose [1]: increased approximately in proportion to increases in dose
Cmax, elderly versus younger subjects [2]: not significantly different
inhibition of CYP1A1 (CYP1A1): neither ceftaroline fosamil nor ceftaroline inhibits
inhibition of CYP1A2 (CYP1A2 [3]): neither ceftaroline fosamil nor ceftaroline inhibits
inhibition of CYP2C8 (CYP2C8 [4]): neither ceftaroline fosamil nor ceftaroline inhibits
inhibition of CYP2D6 (CYP2D6): neither ceftaroline fosamil nor ceftaroline inhibits
inhibition of CYP2E1 (CYP2E1): neither ceftaroline fosamil nor ceftaroline inhibits
induction of CYP2B6 (CYP2B6): not inducers
induction of CYP3A4/5 (CYP3A4/5): not inducers
Clinical Cure Rate at TOC ([5]; CE population): 387/459 (84.3) %
Clinical Cure Rate at TOC ([5]; MITTE population): 479/580 (82.6) %
Treatment Difference in clinical cure rate at TOC ([5]; CE): 6.7 (1.6, 11.8) %
Treatment Difference in clinical cure rate at TOC ([5]; CE, listed as ceftaroline): 6.7%
Weighted treatment difference (95% CI) ([5]; ME): 9.7 (0.7, 18.8) %
Weighted treatment difference (95% CI) ([5]; ME, listed as ceftaroline): 9.7%
Treatment Difference in clinical cure rate at TOC ([5]; MITTE): 6.0 (1.4, 10.7) %
Weighted treatment difference (95% CI) ([5]; mMITTE): 8.7 (−0.0, 17.4) %
Weighted treatment difference (95% CI) ([5]; mMITTE, listed as ceftaroline): 8.7%
Clinical Cure Rate at TOC ([6]; CE population): 193 (82.1) %
Clinical Cure Rate at TOC ([6]; MITTE population): 235 (81.3) %
Difference, clinical cure rate at EOT ([6]; CE): 6.0%
Difference, favorable microbiological outcome at TOC ([6]; ME): 1.8%
Difference, clinical cure rate at EOT ([6]; MITTE): 7.4%
Difference, favorable microbiological outcome at TOC ([6]; mMITTE): 0.4%
Treatment Difference in clinical cure rate at TOC ([6]; CE): 4.9%
Treatment Difference in clinical cure rate at TOC ([6]; MITTE): 5.9%
Favorable Microbiological Outcome at TOC by Baseline Pathogen (S. aureus [7]; ME): 11/15 (73.3) %
Clinical Cure Rate at the TOC Visit by Baseline Pathogen (S. aureus [7]; ME population): 10/15 (66.7) %
Favorable Microbiological Outcome at TOC by Baseline Pathogen (H. influenzae; ME): 13/15 (86.7) %
Clinical Cure Rate at the TOC Visit by Baseline Pathogen (H. influenzae; ME population): 13/15 (86.7) %
Favorable Microbiological Outcome at TOC by Baseline Pathogen (H. parainfluenzae; ME): 9/9 (100.0) %
Clinical Cure Rate at the TOC Visit by Baseline Pathogen (H. parainfluenzae; ME population): 9/9 (100.0) %
Favorable Microbiological Outcome at TOC by Baseline Pathogen (K. pneumoniae; ME): 6/6 (100.0) %
Clinical Cure Rate at the TOC Visit by Baseline Pathogen (K. pneumoniae; ME population): 6/6 (100.0) %
Favorable Microbiological Outcome at TOC by Baseline Pathogen (MDRSP; ME): 2/2 (100.0) %
Clinical Cure Rate at the TOC Visit by Baseline Pathogen (MDRSP; ME population): 2/2 (100.0) %
Favorable Microbiological Outcome at TOC by Baseline Pathogen (S. pneumoniae; ME): 21/24 (87.5) %
Clinical Cure Rate at the TOC Visit by Baseline Pathogen (S. pneumoniae; ME population): 21/24 (87.5) %
Favorable Microbiological Outcome at TOC by Baseline Pathogen (S. aureus [8]; ME): 8/10 (80.0) %
Clinical Cure Rate at the TOC Visit by Baseline Pathogen (S. aureus [8]; ME population): 8/10 (80.0) %
Favorable Microbiological Outcome at TOC by Baseline Pathogen (E. coli; ME): 8/8 (100.0) %
Clinical Cure Rate at the TOC Visit by Baseline Pathogen (E. coli; ME population): 8/8 (100.0) %
induction of CYP1A2 (CYP1A2 [9]): not inducers
induction of CYP2C8 (CYP2C8 [10]): not inducers
induction of CYP2C19 (CYP2C19): not inducers
TEAEs leading to premature discontinuation from study drug administration [11]: 0.6%
any study-drug-related TEAEs, subjects [11]: 12.4%
study-drug-related TEAE: headache [11]: 0.6%
Early withdrawal from study, reason Adverse Event ([11]; MITTE population): 8 (2.8) %
Any AE (TEAE), subjects ([11]; Safety population): 169 (53.7) %
COPD, subjects ([11]; Safety population): 8 (2.5) %
Diarrhea, subjects ([11]; Safety population): 12 (3.8) %
Headache, subjects ([11]; Safety population): 11 (3.5) %
Hypertension, subjects ([11]; Safety population): 8 (2.5) %
Hypokalemia, subjects ([11]; Safety population): 10 (3.2) %
Insomnia, subjects ([11]; Safety population): 10 (3.2) %
Nausea, subjects ([11]; Safety population): 6 ( 1.9) %
Phlebitis, subjects ([11]; Safety population): 10 (3.2) %
Pleural effusion, subjects ([11]; Safety population): 4 (1.3) %
Pneumonia, subjects ([11]; Safety population): 8 (2.5) %
Any AE (TEAE), subjects ([11]; Safety population, listed as ceftaroline): 53.7%
